Paper PMC8119466, “A screen of FDA-approved drugs identifies inhibitors of protein tyrosine phosphatase 4A3 (PTP4A3 or PRL-3)” (Scientific Reports, 2021)
Structures can show the parent of a compound that is named as a salt. Where two headings read alike, the source gives them in different places.

Assays:
Assay type in all cases: biochemical
recombinant PRL-1 = molecular target: T1, recombinant PRL-1 (Homo sapiens, UniProt Q93096); assay: In vitro phosphatase assay (DiFMUP hydrolysis), PRL-1; also: test concentration or dose not given here
T1 construct: 6xHis (N, cleaved yes); made in house; host or cells: E. coli One Shot BL21 Star
T1 sequence (Q93096 1-173): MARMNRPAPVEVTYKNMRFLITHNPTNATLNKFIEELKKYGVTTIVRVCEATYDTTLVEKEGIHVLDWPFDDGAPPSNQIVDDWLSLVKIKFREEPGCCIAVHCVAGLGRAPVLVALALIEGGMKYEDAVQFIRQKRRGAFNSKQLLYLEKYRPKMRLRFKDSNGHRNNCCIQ

recombinant PRL-2 = molecular target: T2, recombinant PRL-2 (Homo sapiens, UniProt Q12974); assay: In vitro phosphatase assay (DiFMUP hydrolysis), PRL-2;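 also: PRL-2 activity read as DiFMUP hydrolysis after 20 min at room temperature with drug, enzyme first pre-reduced at 4 °C for 20 min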
T2 construct: 6xHis (N, cleaved yes); made in house; host or cells: E. coli One Shot BL21 Star
T2 sequence (Q12974 1-167): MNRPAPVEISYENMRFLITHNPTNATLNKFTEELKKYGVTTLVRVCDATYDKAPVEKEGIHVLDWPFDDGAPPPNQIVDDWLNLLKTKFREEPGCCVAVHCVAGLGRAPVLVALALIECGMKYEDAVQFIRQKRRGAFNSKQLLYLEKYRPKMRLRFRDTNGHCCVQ

recombinant PRL-3 = molecular target: T3, recombinant PRL-3 (Homo sapiens, UniProt O75365); assay: In vitro phosphatase assay (DiFMUP hydrolysis), PRL-3; also: test concentration or dose not given here
T3 construct: 6xHis (N, cleaved yes); made in house; host or cells: E. coli One Shot BL21 Star

[1] = FDA-approved drug screen, compared to DMSO
[2] = FDA-approved drug screen, activity compared to DMSO

T3 sequence (O75365 whole entry): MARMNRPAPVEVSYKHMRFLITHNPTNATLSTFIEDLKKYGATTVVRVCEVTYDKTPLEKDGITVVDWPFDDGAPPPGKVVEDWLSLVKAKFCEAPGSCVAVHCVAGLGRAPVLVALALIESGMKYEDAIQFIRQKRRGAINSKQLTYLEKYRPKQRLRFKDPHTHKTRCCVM

Compound | % Phosphatase Activity (compared to DMSO) PRL-1 (recombinant PRL-1; [1]) [%] | % Phosphatase Activity (compared to DMSO) PRL-2 (recombinant PRL-2; [1]) [%] | % Phosphatase Activity (compared to DMSO) PRL-3 (recombinant PRL-3; [1]) [%] | further results
CCOC(=O)n1ccn(C)c1=S [Carbimazole] | 103 | 114 | 78 | 
O=C(O)c1cc(/N=N/c2ccc(O)c(C(=O)O)c2)ccc1O [Olsalazine Sodium] | 59 | 53 | 61 | 
Cl.Cl.NCCc1c[nH]cn1 [Histamine 2HCl] |  |  |  | % Phosphatase Activity (compared to DMSO) PRL-1 (recombinant PRL-1): 97%; % Phosphatase Activity (compared to DMSO) PRL-2 (recombinant PRL-2): 118%; % Phosphatase Activity (compared to DMSO) PRL-3 (recombinant PRL-3): 71%
CN1CCN(C2=Nc3cc(Cl)ccc3Nc3ccccc32)CC1 [Clozapine] | 108 | 95 | 85 | 
C#C[C@]1(O)CC[C@H]2[C@@H]3CCc4cc(O)ccc4[C@H]3CC[C@@]21C [Ethinyl Estradiol] | 99 | 99 | 75 | 
CC1(COc2ccc3c(c2)ncn3-c2ccc3cccc(N4CCC(N)CC4)c3n2)COC1 [Crenolanib (CP-868596)] | 117 | 115 | 105 | 
CCN(CC)CC(=O)Nc1c(C)cccc1C [Lidocaine hydrochloride] | 97 | 88 | 84 | 
CC[C@@H]([C@H](C)O)n1ncn(-c2ccc(N3CCN(c4ccc(OC[C@@H]5CO[C@@](Cn6cncn6)(c6ccc(F)cc6F)C5)cc4)CC3)cc2)c1=O [Posaconazole] | 89 | 99 | 73 | 
CCCCC(=O)O[C@]1(C(=O)CO)[C@@H](C)C[C@H]2[C@@H]3CCC4=CC(=O)C=C[C@]4(C)[C@@]3(F)[C@@H](O)C[C@@]21C [Betamethasone valerate (Betnovate)] | 97 | 83 | 79 | 
C[C@]12CC[C@@H]3c4ccc(O)cc4CC[C@H]3[C@@H]1CCC2=O [Estrone] | 107 | 87 | 76 | 
C[C@H](N[C@@H](CCc1ccccc1)C(=O)O)C(=O)N1CCC[C@H]1C(=O)O.O.O [Enalaprilat Dihydrate] | 102 | 102 | 78 | 
OCC(CO)N[C@H]1C[C@](O)(CO)[C@@H](O)[C@H](O)[C@H]1O [Voglibose] |  |  |  | % Phosphatase Activity (compared to DMSO) PRL-1 (recombinant PRL-1; [2]): 98%; % Phosphatase Activity (compared to DMSO) PRL-2 (recombinant PRL-2; [2]): 104%; % Phosphatase Activity (compared to DMSO) PRL-3 (recombinant PRL-3; [2]): 75%
O=C(NCCO[N+](=O)[O-])c1cccnc1 [Nicorandil] | 86 | 103 | 91 | 
C/C(O)=C(\C#N)C(=O)Nc1ccc(C(F)(F)F)cc1 [Teriflunomide] |  |  |  | % Phosphatase Activity (compared to DMSO) PRL-1 (recombinant PRL-1; [2]): 95%; % Phosphatase Activity (compared to DMSO) PRL-2 (recombinant PRL-2; [2]): 98%; % Phosphatase Activity (compared to DMSO) PRL-3 (recombinant PRL-3; [2]): 84%
Cc1ncc([N+](=O)[O-])n1CC(C)O (stereo not drawn) [Secnidazole] | 112 | 102 | 81 | 
CCOc1cc(CC(=O)N[C@@H](CC(C)C)c2ccccc2N2CCCCC2)ccc1C(=O)O [Repaglinide] | 96 | 81 | 87 | 

Compound | % Phosphatase Activity (compared to DMSO) PRL-1 (recombinant PRL-1; [1]) [%] | % Phosphatase Activity (compared to DMSO) PRL-2 (recombinant PRL-2; [1]) [%] | % Phosphatase Activity (compared to DMSO) PRL-3 (recombinant PRL-3; [1]) [%] | further results
Cc1cc(Nc2cc(CN3CCOCC3)c3nc(C)c(Cc4ccc(Cl)cc4F)n3n2)n[nH]1 [LY2784544] | 146 | 167 | 95 | 
C[C@]12CC[C@H]3[C@@H](CC[C@@]45O[C@@H]4C(O)=C(C#N)C[C@]35C)[C@@H]1CC[C@@H]2O [Trilostane] |  |  |  | % Phosphatase Activity (compared to DMSO) PRL-1 (recombinant PRL-1; [2]): 97%; % Phosphatase Activity (compared to DMSO) PRL-2 (recombinant PRL-2; [2]): 110%; % Phosphatase Activity (compared to DMSO) PRL-3 (recombinant PRL-3; [2]): 88%
Cc1cccc(Nc2ccncc2S(=O)(=O)NC(=O)NC(C)C)c1 [Torsemide] |  |  |  | % Phosphatase Activity (compared to DMSO) PRL-1 (recombinant PRL-1; [2]): 99%; % Phosphatase Activity (compared to DMSO) PRL-2 (recombinant PRL-2; [2]): 93%; % Phosphatase Activity (compared to DMSO) PRL-3 (recombinant PRL-3; [2]): 77%
COC(=O)C1=C(C#N)NC(C)=C(C(=O)OC(C)C)C1c1cccc([N+](=O)[O-])c1 (stereo not drawn) [Nilvadipine] | 88 | 82 | 87 | 
O=C(NC[C@H]1CN(c2ccc(N3CCOCC3=O)cc2)C(=O)O1)c1ccc(Cl)s1 [Rivaroxaban] | 98 | 106 | 92 | 
NS(=O)(=O)c1cc2c(cc1Cl)NCNS2(=O)=O [Hydrochlorothiazide] | 97 | 122 | 76 | 
CN1CCC(OC(c2ccccc2)c2ccccc2)CC1 [Diphenylpyraline HCl] | 97 | 100 | 98 | 
[H]/N=C(/N)N[C@H]1[C@H](O)[C@@H](O)[C@H](O[C@@H]2O[C@@H](C)[C@](O)(C=O)[C@H]2O[C@@H]2O[C@@H](CO)[C@H](O)[C@@H](O)[C@@H]2NC)[C@@H](N/C(N)=N\[H])[C@@H]1O [Streptomycin sulfate] |  |  |  | % Phosphatase Activity (compared to DMSO) PRL-1 (recombinant PRL-1; [2]): 105%; % Phosphatase Activity (compared to DMSO) PRL-2 (recombinant PRL-2; [2]): 89%; % Phosphatase Activity (compared to DMSO) PRL-3 (recombinant PRL-3; [2]): 85%
CCCCC(=O)O[C@H]1CC[C@H]2[C@@H]3CCc4cc(O)ccc4[C@H]3CC[C@]12C [Estradiol valerate] | 103 | 99 | 85 | 
CNC(=O)[C@H](Cc1ccccc1)NC(=O)[C@H](CC(C)C)[C@H](CSc1cccs1)C(=O)NO [Batimastat (BB-94)] | 88 | 79 | 89 | 
CC1(C)S[C@@H]2[C@H](NC(=O)[C@H](NC(=O)N3CCNC3=O)c3ccccc3)C(=O)N2[C@H]1C(=O)O [Azlocillin sodium salt] | 100 | 112 | 85 | 
O=C(O)c1ccccc1O [Salicylic acid] | 103 | 124 | 98 | 
O=S(=O)(O)c1cc(O)ccc1O [Ethamsylate] | 96 | 99 | 71 | 
CC(C)(Oc1ccc(CCNC(=O)c2ccc(Cl)cc2)cc1)C(=O)O [Bezafibrate] | 123 | 119 | 90 | 
O=C1O[C@H]([C@@H](O)CO)C([O-])=C1O.[Na+] [Sodium ascorbate] |  |  |  | % Phosphatase Activity (compared to DMSO) PRL-1 (recombinant PRL-1; [2]): 85%; % Phosphatase Activity (compared to DMSO) PRL-2 (recombinant PRL-2; [2]): 71%; % Phosphatase Activity (compared to DMSO) PRL-3 (recombinant PRL-3; [2]): 113%
